Results published in PMC11876671, “Investigating blood–brain barrier penetration and neurotoxicity of natural products for central nervous system drug development” (Scientific Reports, 2025).
Where a name gives a salt, the structure may show the parent alone.

experiment: in vitro; conditions: PAMPA, PAMPA-BBB Pe(10^-6 cm/sec)

Going from CC(=O)OCC(=O)[C@@]1(O)CC[C@H]2[C@@H]3CCC4=CC(=O)CC[C@]4(C)[C@H]3[C@@H](O)C[C@@]21C [HYDROCORTISONE ACETATE] to CC1=C(/C=C/C(C)=C/C=C/C(C)=C\C(=O)O)C(C)(C)CCC1 [ISOTRETINOIN], the Papp rises from < 1 ×10⁻⁶ cm/s to 8.7 ×10⁻⁶ cm/s.

Oc1ccc(O)cc1 [HYDROQUINONE] and Oc1cc(O)c2c(c1)O[C@H](c1ccc(O)c(O)c1)[C@H](O)C2 [L-EPICATECHIN] cannot be ordered by Papp: < 1 ×10⁻⁶ cm/s for the first, < 1 ×10⁻⁶ cm/s for the second.

Nc1nc(=O)[nH]c2c1ncn2[C@@H]1O[C@H](CO)[C@@H](O)[C@H]1O [ISOGUANOSINE] and CN1c2c(nc(N)[nH]c2=O)NC[C@@H]1CNc1ccc(C(=O)N[C@@H](CCC(=O)O)C(=O)O)cc1 [LEVOMEFOLATE] cannot be ordered by Papp: < 1 ×10⁻⁶ cm/s for the first, < 1 ×10⁻⁶ cm/s for the second.

same assay, conditions: PAMPA, PAMPA-BBB Pe(10^-6 cm/sec), Table S3: compounds exhibiting low PAMPA-BBB permeability

Nc1nc2c(ncn2[C@@H]2O[C@H](COP(=O)(O)OP(=O)(O)O)[C@@H](O)[C@H]2O)c(=O)[nH]1 [Guanosine pyrophosphate] and COC(=O)C1=CO[C@@H](O[C@@H]2O[C@H](CO)[C@@H](O)[C@H](O)[C@H]2O)[C@@H]2[C@@H](C)[C@@H](O)C[C@H]12 [LOGANIN] cannot be ordered by Papp: < 1 ×10⁻⁶ cm/s for the first, < 1 ×10⁻⁶ cm/s for the second.

C[C@]1(OC(=O)/C=C/c2ccccc2)C[C@@H](O)[C@]2(O)C=CO[C@@H](O[C@@H]3O[C@H](CO)[C@@H](O)[C@H](O)[C@H]3O)[C@@H]21 [HARPAGOSIDE] and O=C1C[C@@H](c2ccc(O[C@@H]3O[C@H](CO)[C@@H](O)[C@H](O)[C@H]3O)cc2)Oc2cc(O)ccc21 [LIQUIRITIN] cannot be ordered by Papp: < 1 ×10⁻⁶ cm/s for the first, < 1 ×10⁻⁶ cm/s for the second.

Going from COC(=O)C[C@](O)(CCC(C)(C)O)C(=O)O[C@@H]1C(OC)=C[C@]23CCCN2CCc2cc4c(cc2[C@H]13)OCO4 [HARRINGTONINE] to COc1ccc2cc1Oc1ccc(cc1)C[C@H]1c3cc(c(OC)cc3CCN1C)Oc1c(OC)c(OC)c(OC)c3c1[C@H](C2)N(C)CC3 [HERNANDEZINE], the Papp rises from < 1 ×10⁻⁶ cm/s to 9.7 ×10⁻⁶ cm/s.

C[C@@H]1CC[C@@]2(OC1)O[C@H]1C[C@H]3[C@@H]4CC[C@H]5C[C@@H](O)CC[C@]5(C)[C@H]4CC(=O)[C@]3(C)[C@H]1[C@@H]2C [HECOGENIN] and C[C@@H]1CC[C@]2(C)CC[C@]3(C)C(=CC(=O)C4[C@@]5(C)CC[C@@H](O)[C@](C)(C(=O)O)C5CC[C@]43C)C2[C@H]1C (some centres unmarked) [KETO-B-BOSWELLIC ACID] cannot be ordered by Papp: < 1 ×10⁻⁶ cm/s for the first, < 1 ×10⁻⁶ cm/s for the second.

Cc1ncsc1CCO [HEMINEURINE] and Cc1cccc(C(=O)O)c1O [HYDROXYTOLUIC ACID] cannot be ordered by Papp: < 1 ×10⁻⁶ cm/s for the first, < 1 ×10⁻⁶ cm/s for the second.

First: O=c1cc(O)cc(/C=C/c2ccc(O)c(O)c2)o1 [HISPIDIN]
Second: O=c1cc(-c2ccc(O)c(O)c2)oc2cc(O)cc(O)c12 [LUTEOLIN]
The Papp of the first is lower: < 1 ×10⁻⁶ cm/s for the first, 2.2 ×10⁻⁶ cm/s for the second.

C/C=C1\[C@H]2C=C(C)C[C@]1(N)c1ccc(=O)[nH]c1C2 [HUPERZINE A] and Cc1cc(=O)oc2cc(O)ccc12 [HYMECROMONE] are within 1.5-fold of each other in Papp: 8.1 ×10⁻⁶ cm/s for the first, 9.9 ×10⁻⁶ cm/s for the second.

O=C(O)Cc1c[nH]c2ccc(O)cc12 [HYDROXYIN[…]] and O=C(O)CCCc1c[nH]c2ccccc12 [IND[…]] cannot be ordered by Papp: < 1 ×10⁻⁶ cm/s for the first, < 1 ×10⁻⁶ cm/s for the second.

First: Cc1cc(O)c2c(=O)c3c(O)cc(O)c4c5c(O)cc(O)c6c(=O)c7c(O)cc(C)c8c1c2c(c34)c(c78)c65 [HYPERICIN]
Second: Cc1cc(OC(=O)c2c(C)cc(O)cc2O)cc(O)c1C(=O)O [LECANORIC ACID]
The Papp of the first is higher: 6.4 ×10⁻⁶ cm/s for the first, < 1 ×10⁻⁶ cm/s for the second.

O=c1c(O[C@@H]2O[C@H](CO)[C@H](O)[C@H](O)[C@H]2O)c(-c2ccc(O)c(O)c2)oc2cc(O)cc(O)c12 [HYPEROSIDE] and COc1cc(-c2coc3cc(O[C@@H]4O[C@H](CO)[C@@H](O)[C@H](O)[C@H]4O)c(OC)c(O)c3c2=O)cc(O)c1OC [IRIDIN] are within 1.5-fold of each other in Papp: 1.6 ×10⁻⁶ cm/s for the first, 1.3 ×10⁻⁶ cm/s for the second.

Going from CSCCCN=C=S [IBERVERIN] to CC/C=C\C/C=C\C/C=C\C/C=C\C/C=C\CCCC(=O)OCC [ICOSAPENT ETHYL], the Papp falls from 9.7 ×10⁻⁶ cm/s to < 1 ×10⁻⁶ cm/s.

COC(=O)/C=C/C(C)=C/C=C/C(C)=C/C=C/C=C(C)/C=C/C=C(C)/C=C/C(=O)O [ISOBIXIN] and COC(=O)c1ccc(O)c2nc3c(C=O)c(O)cc(O)c3nc12 [LOMOFUNGIN] are within 1.5-fold of each other in Papp: 4.2 ×10⁻⁶ cm/s for the first, 5.1 ×10⁻⁶ cm/s for the second.

CC/C=C\CC1=C(C)CCC1=O [JASMONE] and N[C@@H](Cc1cc(I)c(O)c(I)c1)C(=O)O [L-DIIODOTYROSINE] cannot be ordered by Papp: < 1 ×10⁻⁶ cm/s for the first, < 1 ×10⁻⁶ cm/s for the second.

O=C1C=CC(=O)c2c(O)cccc21 [JUGLONE] and O=c1cc(-c2ccc(O)cc2)oc2cc(O)ccc12 [K[…]] are within 1.5-fold of each other in Papp: 4.1 ×10⁻⁶ cm/s for the first, 2.9 ×10⁻⁶ cm/s for the second.

C[C@@]12C=Cc3occc3[C@H]1CC[C@@]13C[C@@H](CC[C@H]12)[C@@](O)(CO)C3 [KAHWEOL] and O=C(/C=C/c1ccc(O)c2c1[C@H](C(=O)O)[C@@H](c1ccc(O)c(O)c1)O2)O[C@H](Cc1ccc(O)c(O)c1)C(=O)O [LITHOSPERMIC ACID A] cannot be ordered by Papp: < 1 ×10⁻⁶ cm/s for the first, < 1 ×10⁻⁶ cm/s for the second.

C[C@H]1O[C@H](O[C@H]2[C@H](O)[C@@H](O)[C@@H](O)[C@H](O)[C@@H]2O)[C@@H](N)C[C@@H]1NC(=N)C(=O)O [KASUGAMYCIN HYDROCHLORIDE] and COc1cc2c(cc1O)C[C@@H]1NCCc3cc(OC)c(OC)c-2c31 [LAUROTETANINE] cannot be ordered by Papp: < 1 ×10⁻⁶ cm/s for the first, < 1 ×10⁻⁶ cm/s for the second.

Compared with c1coc(CNc2ncnc3[nH]cnc23)c1 [KINETIN], NCCC(=O)c1ccccc1N [KYNURAMINE] is 1.7-fold lower in Papp: 4 ×10⁻⁶ cm/s for the first, 2.4 ×10⁻⁶ cm/s for the second.

same assay, conditions: PAMPA, PAMPA-BBB Pe, Table S2: compounds exhibiting moderate to high PAMPA-BBB permeability

Going from CC1(C)O[C@@H]1COc1c2occc2cc2ccc(=O)oc12 [HERACLENIN] to COc1cc(OC)c2ccc(=O)oc2c1 [LIMETTIN], the Papp falls from 210 ×10⁻⁶ cm/s to 105 ×10⁻⁶ cm/s (2-fold).

First: C=C[C@H]1CN2CCc3c([nH]c4ccccc34)[C@H]2C[C@@H]1/C(=C\OC)C(=O)OC [HIRSUTEINE]
Second: C=C[C@H]1CN2CC[C@@]3(C(=O)Nc4ccccc43)[C@@H]2C[C@@H]1/C(=C\OC)C(=O)OC [ISOCORYNOXEINE]
The Papp of the first is 3.2-fold higher: 118 ×10⁻⁶ cm/s for the first, 37 ×10⁻⁶ cm/s for the second.

Compared with COc1c2c(cc3c1OCO3)CCN(C)C2 [HYDROCOTARNINE HYDROBROMIDE], COc1ccc2c(c1O)-c1c(OC)c(OC)cc3c1[C@H](C2)N(C)CC3 [ISOCORYDINE] is 2.1-fold higher in Papp: 35 ×10⁻⁶ cm/s for the first, 74 ×10⁻⁶ cm/s for the second.

Going from CC[C@H]1CN2CC[C@H]1C[C@@H]2[C@@H](O)c1ccnc2ccc(OC)cc12 [HYDROQUINIDINE HYDROCHLORIDE] to COC1=CC(=O)O[C@@H](/C=C/c2ccccc2)C1 [KAWAIN], the Papp rises from 37 ×10⁻⁶ cm/s to 114 ×10⁻⁶ cm/s (3.1-fold).

Going from CC(=O)[C@@]1(O)CC[C@H]2[C@@H]3CCC4=CC(=O)CC[C@]4(C)[C@H]3CC[C@@]21C [HYDROXYPROGESTERONE] to CC(C)=CCC[C@@H](C)[C@H]1CC[C@@]2(C)C3=C(CC[C@]12C)[C@@]1(C)CC[C@H](O)C(C)(C)[C@@H]1CC3 [LANOSTEROL], the Papp falls from 110 ×10⁻⁶ cm/s to 13 ×10⁻⁶ cm/s (8.5-fold).

Going from O=C(/C=C/c1ccccc1)NCCO [IDROCILAMIDE] to OCc1c[nH]c2ccccc12 [INDOLE-3-CARBINOL], the Papp falls from 211 ×10⁻⁶ cm/s to 94 ×10⁻⁶ cm/s (2.2-fold).

Compared with Oc1ccc(C2=Cc3ccc(O)cc3OC2)cc1 [IDRONOXIL], COc1cc(-c2oc3cc(O)cc(O)c3c(=O)c2O)ccc1O [ISORHAMNETIN] is 3.6-fold higher in Papp: 145 ×10⁻⁶ cm/s for the first, 528 ×10⁻⁶ cm/s for the second.

Compared with COc1cc2c(cc1O)C[C@H]1c3c(cc(OC)c(O)c3-2)CCN1C [ISOBOLDINE], N[C@@H](Cc1cc(I)c(Oc2cc(I)c(O)c(I)c2)c(I)c1)C(=O)O [LEVOTHYROXINE] is 2.4-fold higher in Papp: 35 ×10⁻⁶ cm/s for the first, 83 ×10⁻⁶ cm/s for the second.

First: CC1(C)C2=CCCC(C)(C)[C@]23CC[C@H]1C3 [ISOLONGIFOLENE]
Second: CC1=CC(=O)C2=C(C)CC[C@@H]3[C@H](OC(=O)[C@H]3C)[C@@H]12 [LEUKOMISIN]
The Papp of the first is 1.5-fold higher: 87 ×10⁻⁶ cm/s for the first, 57 ×10⁻⁶ cm/s for the second.

c1ccc2cnccc2c1 [ISOQUINOLINE] gave a Papp of 157 ×10⁻⁶ cm/s.
